The values below come from Sander's compilation of Henry's law constants.

Molecules are shown by their SMILES.

Series [1] can be described thus: Henry solubility constant Hcp at 310 K (mol/(m3 Pa)).
Series [2] is described as follows: Henry solubility constant Hcp at 298.15 K (mol/(m3 Pa)).
Series [3] in a line: Henry solubility constant Hcp at 296 K (mol/(m3 Pa)).
Series [4] in a line: Henry solubility constant Hcp at 293 K (mol/(m3 Pa)).
Setting [5] is: reference: Power and Stegall (1970).
Setting [6] is: reference: Fendinger et al. (1989).
Setting [7] is: reference: Warner et al. (1980).
[8] abbreviates: reference: Nicholson et al. (1984).
Where [9] appears, read: reference: Ruiz-Bevia and Fernandez-Torres (2010).
[10] abbreviates: reference: Munz and Roberts (1987).

Regarding `[C-]#[O+]` [carbon monoxide], the “Henry solubility constant Hcp at 310 K” value in series [1] (setting [5]) was determined as 8.3e-06. Further, the “Henry solubility constant Hcp” value in series [2] (reference: Bunsen (1855a)) came out at 9.5e-06; in series [2] (reference: Meadows and Spedding (1974)), 7.9e-05; in series [2] (reference: Rettich et al. (1982)), 9.7e-06; in series [2] (reference: Schmidt (1979)), 7e-06; in series [2] (reference: Winkler (1901)) it was 9.4e-06.

Regarding `ClC1=C(Cl)[C@]2(Cl)C3C(Cl)C(Cl)CC3[C@@]1(Cl)C2(Cl)Cl` (stereo partly drawn) [chlordane], the “Henry solubility constant Hcp at 296 K” value in series [3] (setting [6]) amounted to 0.18. The “Henry solubility constant Hcp” value in series [2] (setting [6]) is 0.12; in series [2] (setting [7]), 0.21.

In the case of `ClC(Br)Br` [dibromochloromethane], the “Henry solubility constant Hcp at 310 K” value in series [1] (reference: Zhang et al. (2002)) worked out at 0.0046. For the same compound, the “Henry solubility constant Hcp” value amounted to 0.0085 in series [2] (reference: Ervin et al. (1980)), 0.0086 in series [2] (setting [8]), 0.011 in series [2] (setting [9]) and 0.013 in series [2] (setting [7]).

Take `CCCCOC(=O)c1ccccc1C(=O)OCCCC` [dibutyl phthalate]: the “Henry solubility constant Hcp at 296 K” value in series [3] (reference: Atlas et al. (1983)) is 5.5.

In the case of `CCOCC` [diethyl ether], the “Henry solubility constant Hcp at 310 K” value turned out to be 0.0063 in series [1] (reference: Brody et al. (1971)) and 0.0051 in series [1] (reference: Eger et al. (1963)). Moreover, the “Henry solubility constant Hcp at 293 K” value in series [4] (reference: Yu (1992)) stood at 0.0033. Further, the “Henry solubility constant Hcp” value is 0.013 in series [2] (reference: Bachofen and Farhi (1971)); 0.011 in series [2] (reference: Nielsen et al. (1994)); 0.01 in series [2] (reference: Ondo and Dohnal (2007)); 0.0078 in series [2] (reference: Signer et al. (1969)).

For the compound `[Ne]` [neon], the “Henry solubility constant Hcp at 310 K” value in series [1] (setting [5]) is 4.3e-06. The “Henry solubility constant Hcp” value in series [2] (reference: Crovetto et al. (1982)) is 4.4e-06; in series [2] (reference: Krause and Benson (1989)), 4.5e-06; in series [2] (reference: Lannung (1930)) it was 4.6e-06; in series [2] (reference: Morrison and Johnstone (1954)) it was 4.5e-06; in series [2] (reference: von Antropoff (1910)), 6.6e-06.

Regarding `FS(F)(F)(F)(F)F` [sulfur hexafluoride], the “Henry solubility constant Hcp at 310 K” value in series [1] (reference: Longo et al. (1970)) and in series [1] (setting [5]) was 1.7e-06 each time. In addition, the “Henry solubility constant Hcp” value in series [2] (reference: Ashton et al. (1968)) came out at 2.4e-06; in series [2] (reference: Bullister et al. (2002)), 2.3e-06; in series [2] (reference: Cosgrove and Walkley (1981)), 2.5e-06; in series [2] (reference: Friedman (1954)), 2.2e-06; in series [2] (reference: Park et al. (1982)), 2.4e-06.

Take `ClC(Cl)(Cl)Cl` [tetrachloromethane]: the “Henry solubility constant Hcp at 293 K” value in series [4] (reference: Chiang et al. (1998)) worked out at 0.0004; in series [4] (reference: Pearson and McConnell (1975)), 0.00045; in series [4] (reference: Yurteri et al. (1987)), 0.00043. Also, the “Henry solubility constant Hcp” value in series [2] (reference: Balls (1980)) was found to be 0.00032; in series [2] (reference: Bissonette et al. (1990)), 0.00028; in series [2] (reference: Bullister and Wisegarver (1998)) it was 0.00029; in series [2] (reference: Chen et al. (2012)), 0.0003; in series [2] (reference: Gossett (1987)), 0.00033; in series [2] (reference: Hartkopf and Karger (1973)), 0.00037. The “Henry solubility constant Hcp” value in series [2] (reference: Hunter-Smith et al. (1983)) came to 0.00041; in series [2] (reference: Lutsyk et al. (2005)) it was 0.00034; in series [2] (reference: Munz and Roberts (1986)) it was 0.00042; in series [2] (setting [10]), 0.00033; in series [2] (reference: Park et al. (1997)), 0.00039; in series [2] (reference: Tancrède and Yanagisawa (1990)), 0.00034. Also, in series [2] (setting [7]), the “Henry solubility constant Hcp” value was determined as 0.00033.

Regarding `BrC(Br)Br` [tribromomethane], the “Henry solubility constant Hcp at 310 K” value in series [1] (reference: Zhang et al. (2002)) turned out to be 0.0096. Also, the “Henry solubility constant Hcp” value was found to be 0.0085 in series [2] (reference: Khalfaoui and Newsham (1994a)); 0.018 in series [2] (setting [10]); 0.016 in series [2] (setting [8]); 0.02 in series [2] (setting [9]); 0.019 in series [2] (setting [7]).

Consider `[134Xe]` [xenon-133], for which, in series [1] (reference: Ercan (1979)), the “Henry solubility constant Hcp at 310 K” value was 3.2e-05.
